Assays:
[1] = biological target: Cannabinoid receptor 1 (Rattus norvegicus) (UniProt P20272); assay: […] [3H]WIN-55212 binding to Cannabinoid receptor 1 in rat cerebellum membranes.; type: cell membranes; settings: Membrane, concentration not given here
Mus musculus = species on record: Mus musculus; assay: Concentration required to inhibit electrically induced contractions in isolated mouse vas deferens preparation in vitro; type: functional; settings: Mus musculus

Chain of Cannabinoid receptor 1 (Rattus norvegicus) (P20272 whole entry): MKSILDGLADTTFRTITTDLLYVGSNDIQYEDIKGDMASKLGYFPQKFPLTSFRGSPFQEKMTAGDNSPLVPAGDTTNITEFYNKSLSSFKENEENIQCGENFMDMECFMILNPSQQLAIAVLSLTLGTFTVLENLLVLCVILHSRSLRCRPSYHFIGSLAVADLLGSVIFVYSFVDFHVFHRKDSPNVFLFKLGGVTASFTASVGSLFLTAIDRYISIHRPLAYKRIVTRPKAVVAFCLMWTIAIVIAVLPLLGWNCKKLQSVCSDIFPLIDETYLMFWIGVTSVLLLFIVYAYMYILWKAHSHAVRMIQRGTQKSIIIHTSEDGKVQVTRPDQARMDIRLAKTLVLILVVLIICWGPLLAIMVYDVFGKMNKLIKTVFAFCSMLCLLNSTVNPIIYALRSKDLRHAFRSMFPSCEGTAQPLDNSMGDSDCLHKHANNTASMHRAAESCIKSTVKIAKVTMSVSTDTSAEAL

Row | SMILES | inhibition [1] [%] | IC50 (Mus musculus) [nM]
1 | Cc1c(C(=O)c2ccc(-c3ccccc3)cc2)c2ccccc2n1CCN1CCOCC1 | 9 | 10000
2 | Cc1c(C(=O)c2ccc(O)cc2)c2ccccc2n1CCN1CCOCC1 | 15 | > 10000
3 | COc1ccc(C(=O)c2cn(CCN3CCOCC3)c3cc(Br)ccc23)cc1 | 21 | 17
4 | C[N+]1(CCn2cc(C(=O)c3cccc4ccccc34)c3ccccc32)CCOCC1 | 14 | 180
5 | Cc1c(C(=O)c2cnc3ccccc3c2)c2ccccc2n1CCN1CCOCC1 | 28 | 571
6 | Cc1c(C(=O)c2cc3ccccc3c3ccccc23)c2ccccc2n1CCN1CCOCC1 | 75 | 175
7 | Cc1cccc(C)c1C(=O)c1c(C)n(CCN2CCOCC2)c2ccccc12 | -5 | 1570
8 | Cc1c(C=O)c2ccccc2n1CCN1CCOCC1 | 37 | 656
9 | N#Cc1ccc(C(=O)c2cn(CCN3CCOCC3)c3ccccc23)c2ccccc12 | 96 | 4.8
10 | COc1ccc(C(=O)c2c(C)n(CCN3CCOCC3)c3ccc(F)cc23)cc1 | 19 | 119
11 | COc1ccc(C(=O)c2c(C)n(CCN3CCOCC3)c3ccc(OC)cc23)cc1 | 14 | > 10000
12 | COc1ccc(C(=O)c2c(C)n(CCCN3CCOCC3)c3ccccc23)cc1 | -6 | 360
13 | COc1ccc(C(=O)c2c(C)n(CCN3CCCC3)c3ccccc23)cc1 | 7 | 241
14 | Cc1cc(C)cc(C(=O)c2c(C)n(CCN3CCOCC3)c3ccccc23)c1 | 42 | 390
15 | Cc1c(C(=O)c2ccc3ccc4cccc5ccc2c3c45)c2ccccc2n1CCN1CCOCC1 | 89 | 42
16 | COc1ccc(C(=O)c2c(C)n(CCN3CCCCC3)c3ccccc23)cc1 | 34 | 1430
17 | Cc1[nH]c2ccccc2c1C(=O)c1cccc2ccccc12 | 3 | > 10000
18 | Cc1c(C(=O)c2ccccc2Cl)c2ccccc2n1CCN1CCOCC1 | 59 | 92

Row | SMILES | inhibition [1] [%] | IC50 (Mus musculus) [nM]
19 | Cc1c(C(=O)c2ccc(Cl)cc2)c2ccccc2n1CCN1CCOCC1 | 62 | 564
20 | COc1ccc(C(=O)c2c(C)n(CCO)c3ccccc23)cc1 | -6 | > 10000
21 | COc1ccc(C(=O)c2c(C)n(CCN3CCOCC3)c3ccc(C)cc23)cc1 | 7 | > 10000
22 | COc1ccc(C(=O)c2c(C)n(CC[N+]3([O-])CCOCC3)c3ccccc23)cc1 | -9 | > 10000
23 | COc1ccc(C(=O)c2c(C)n(C(C)CN3CCOCC3)c3ccccc23)cc1 (stereo not given) | 34 | 1360
24 | COc1ccc(C(=O)c2c(Cl)n(CCN3CCOCC3)c3ccccc23)cc1 | 47 | 176
25 | Cc1c(C(=O)c2cccc3ccccc23)c2ccccc2n1CC(=O)O | 21 | 9740
26 | Cc1c(C(=O)c2cccc3cc4ccccc4cc23)c2ccccc2n1CCN1CCOCC1 | 74 | 57
27 | Cc1ccccc1C(=O)c1c(C)n(CCN2CCOCC2)c2ccccc12 | 13 | 715
28 | O=C(c1ccc(Br)c2ccccc12)c1cn(CCN2CCOCC2)c2ccccc12 | 98 | 5.5
29 | O=C(c1cccc2c1CCCC2)c1cn(CCN2CCOCC2)c2ccccc12 | 97 | 6
30 | Cc1c(C(=O)c2ccccc2F)c2ccccc2n1CCN1CCOCC1 | 15 | 1940
31 | Cc1c(C(=O)c2ccc(C#N)cc2)c2ccccc2n1CCN1CCOCC1 | -1 | > 10000
32 | COc1cccc(C(=O)c2c(C)n(CCN3CCOCC3)c3ccccc23)c1 | 76 | 206
33 | COc1ccc(C(=O)c2c(C)n(CCN3CCOCC3)c3c(OC)cccc23)cc1 | 64 | 266
34 | COc1ccc(C(=O)c2cn(C(C)CN3CCOCC3)c3ccccc23)cc1 (stereo not given) | 35 | 3670
35 | COc1ccc(C(=O)c2c(C)n(CCN3CCOCC3)c3cccc(C)c23)cc1 | 42 | > 10000
